Measurements published in PubChem BioAssay (NCI).
Values joined by “and” are separate entries in the source; they are usually repeats but may differ in a detail not shown here. Identical values can stand only once.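 Interpolation was linear, between the two tested concentrations surrounding the appropriate level; five concentrations were tested over 48 hours in 96-well plates. GI50 marks 50% less growth. TGI denotes the concentration required for complete inhibition of growth.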

Columns and labels:
Assay in all cases: inhibition of tumour cell growth, NCI panel, 48 h; in the data active = GI50 below about 0.43 µM; inactive = the rest
[1] = test system: OVCAR-4 ovarian
[2] = test system: NCI-H226 lung
[3] = test system: T-47D breast
[4] = test system: SN12C renal
[5] = test system: SK-MEL-2 melanoma
[6] = test system: NCI-H460 lung
[7] = test system: HT29 colon
[8] = test system: TK-10 renal
[9] = test system: UACC-257 melanoma
[10] = test system: HL-60(TB) leukemia
[11] = test system: BT-549 breast
[12] = test system: NCI-H23 lung
[13] = test system: A549 NSCLC
[14] = test system: COLO 205 colon
[15] = test system: SW-620 colon
[16] = test system: OVCAR-3 ovarian
[17] = test system: MALME-3M melanoma
[18] = test system: HCT-15 colon
[19] = test system: SR leukemia
[20] = test system: HCT-116 colon
[21] = test system: NCI/ADR-RES ovarian
[22] = test system: MDA-MB-231 breast
[23] = test system: M14 melanoma
[24] = test system: U251 CNS
[25] = test system: PC-3 prostate
[26] = test system: OVCAR-5 ovarian
[27] = test system: EKVX NSCLC
[28] = test system: MDA-N
[29] = test system: UACC-62 melanoma
[30] = test system: NCI-H522 lung
[31] = test system: CAKI-1 renal
[32] = test system: HOP-92 NSCLC
[33] = test system: HCC-2998 colon
[34] = test system: SNB-75 CNS
[35] = test system: HS 578T breast
[36] = test system: SK-MEL-5 melanoma
[37] = test system: A498 renal
[38] = test system: UO-31 renal
[39] = test system: RPMI-8226 leukemia
[40] = test system: MOLT-4 leukemia
[41] = test system: 786-0 renal
[42] = test system: ACHN renal
[43] = test system: MCF7 breast
[44] = test system: SF-295 CNS
[45] = test system: SNB-19 CNS
[46] = test system: SK-MEL-28 melanoma
[47] = test system: OVCAR-8 ovarian
[48] = test system: K-562 leukemia
[49] = test system: SK-OV-3 ovarian
[50] = test system: MDA-MB-435
[51] = test system: HOP-62 NSCLC
[52] = test system: SF-539 CNS
[53] = test system: IGROV1 ovarian
[54] = test system: SF-268 CNS
[55] = test system: CCRF-CEM leukemia
[56] = test system: LOX IMVI melanoma
[57] = test system: KM12 colon
[58] = test system: DU-145 prostate
[59] = test system: RXF 393 renal

OCCCSCCO
> 100 µM: TGI [1] | TGI [2] | TGI [3] | TGI [4] | TGI [5] | TGI [6] | TGI [7] | TGI [8] | TGI [9] | TGI [10] | TGI [11] | TGI [12] | TGI [13] | TGI [14] | TGI [15] | TGI [16] | TGI [17] | TGI [18] | TGI [19] | TGI [20] | TGI [21] | TGI [22] | TGI [23] | TGI [24] | TGI [25] | TGI [26] | TGI [27] | TGI [28] | TGI [29] | TGI [30] | TGI [31] | TGI [32] | TGI [33] | TGI [34] | TGI [35] | TGI [36] | TGI [37] | TGI [38] | TGI [39] | TGI [40] | TGI [41] | TGI [42] | TGI [43] | TGI [44] | TGI [45] | TGI [46] | TGI [47] | TGI [48] | TGI [49] | TGI [50] | TGI [51] | TGI [52] | TGI [53] | TGI [54] | TGI [55] | TGI [56] | TGI [57] | TGI [58]

CC(=O)OCC1OC(n2c(N)c(C#N)c(C)c(C#N)c2=S)C(OC(C)=O)C(OC(C)=O)C1OC(C)=O (centres undefined)
inactive: GI50 [19] 39.5 µM and > 100 µM | GI50 [22] 40 µM and > 100 µM | GI50 [32] 43.8 µM and > 100 µM
> 100 µM: TGI [1] | TGI [2] | TGI [3] | TGI [4] | TGI [5] | TGI [6] | TGI [7] | TGI [8] | TGI [9] | TGI [11] | TGI [12] | TGI [13] | TGI [14] | TGI [15] | TGI [16] | TGI [17] | TGI [18] | TGI [19] | TGI [20] | TGI [21] | TGI [22] | TGI [23] | TGI [24] | TGI [25] | TGI [26] | TGI [27] | TGI [59] | TGI [28] | TGI [29] | TGI [30] | TGI [31] | TGI [32] | TGI [33] | TGI [34] | TGI [35] | TGI [36] | TGI [37] | TGI [38] | TGI [39] | TGI [40] | TGI [41] | TGI [42] | TGI [43] | TGI [44] | TGI [45] | TGI [46] | TGI [47] | TGI [49] | TGI [50] | TGI [51] | TGI [52] | TGI [53] | TGI [54] | TGI [55] | TGI [56] | TGI [57] | TGI [58]

CCCC(C)NC(=O)c1ccc(N(C)Cc2cnc3nc(N)nc(N)c3n2)cc1 (centres undefined)
31.1 µM: TGI [23]
86.1 µM: TGI [8]
89.4 µM: TGI [51]
84.5 µM: TGI [59]
56.6 µM: TGI [34]
75.2 µM: TGI [47]
57.5 µM: TGI [9]
82.6 µM: TGI [56]
25.7 µM: TGI [29]
49 µM: TGI [5]
32.3 µM: TGI [52]
58.6 µM: TGI [7]
> 100 µM: TGI [4] | TGI [6] | TGI [10] | TGI [12] | TGI [14] | TGI [15] | TGI [18] | TGI [19] | TGI [20] | TGI [21] | TGI [22] | TGI [24] | TGI [25] | TGI [27] | TGI [28] | TGI [31] | TGI [37] | TGI [38] | TGI [39] | TGI [40] | TGI [41] | TGI [44] | TGI [45] | TGI [48] | TGI [49] | TGI [53] | TGI [54] | TGI [55] | TGI [57] | TGI [58]
37.4 µM: TGI [36]
88.6 µM: TGI [26]
42.3 µM: TGI [46]
53.9 µM: TGI [3]
48.2 µM: TGI [50]
47.6 µM: TGI [2]
41.6 µM: TGI [11]
39.3 µM: TGI [17]
44.2 µM: TGI [35]
78 µM: TGI [43]
46.2 µM: TGI [16]
92.5 µM: TGI [42]

c1ccc(-c2c3c(nc4c2CC[C@H]4NC2=NCCN2)[C@@H](NC2=NCCN2)CC3)cc1
> 100 µM: TGI [1] | TGI [2] | TGI [3] | TGI [4] | TGI [5] | TGI [6] | TGI [7] | TGI [8] | TGI [9] | TGI [10] | TGI [11] | TGI [12] | TGI [13] | TGI [14] | TGI [15] | TGI [16] | TGI [17] | TGI [18] | TGI [19] | TGI [20] | TGI [21] | TGI [22] | TGI [23] | TGI [25] | TGI [26] | TGI [27] | TGI [59] | TGI [28] | TGI [29] | TGI [30] | TGI [31] | TGI [32] | TGI [33] | TGI [34] | TGI [35] | TGI [36] | TGI [37] | TGI [38] | TGI [40] | TGI [41] | TGI [42] | TGI [43] | TGI [44] | TGI [46] | TGI [47] | TGI [48] | TGI [49] | TGI [50] | TGI [51] | TGI [52] | TGI [53] | TGI [54] | TGI [55] | TGI [56] | TGI [57] | TGI [58]
23.6 µM: TGI [24]
